Laboratory results taken from patent US7157083B2, “Compositions and methods for treating retroviral infections” (priority 1998, dated 2007).

System: clinical isolate ROJO (low passage HIV-1) in human PBMCs
Test: Study 1 PBMC assay: reverse transcriptase activity after ROJO infection (Treatments A, B, C)
Assay type: cell-based
Description: Percent virus control (% VC) in the following tables is the mean RT activity (cpm) as a percentage of a virus control. Percent cell control (% CC) is the mean XTT absorbance as a percentage of a cell control.
Peripheral blood monocular cells (PBMCs) are obtained from normal hepatitis and HIV-1 negative donors by ficoll hypaque gradient separation. Briefly, anti-coagulated blood is diluted 1:1 with Dulbecco's phosphate buffered saline without Ca^++ and Mg^++ (PBS) and layered over 14 mL of Lymphocyte separation media in a 50 ml centrifuge tube. Tubes are then centrifuged for 30 minutes at 600× g. Banded PBLs are gently aspirated from the resulting interface and subsequently washed 2× with PBS by low speed centrifugation. The mononuclear cells are counted, viability determined by Trypan Blue dye exclusion and resuspended in RPM1640 medium supplemented with 15% FBS (heat inactivated), 2 mM L-glutamine, 100 U/mL penicillin, 100 μg/mL streptomycin, and 10 μg/mL gentamycin with 2 μg/mL phytohemagluttin (PHA) at 1×10^6 cells/mL. The cells are cultured for 48 to 72 h at 37° C., 5% CO2 Following incubation, cells are collected by centrifugation, washed and resuspended in RPMI 1640 supplemented with 15% FBS (heat inactivated), 2 Mm L-glutamine, 100 U/mL penicillin, 100 μg/mL streptomycin, and 10 μg/mL gentamycin with 20 U/mL recombinant IL-2 (R & D Systems, Minneapolis, Minn.). IL-2 is included in the culture medium to maintain the cell division initiated by the PHA mitogenic stimulation. The cultures are then maintained until use by ½ culture volume change with fresh IL-2 containing medium every 3 days.
Human peripheral blood mononuclear cells from a minimum of 2 donors, that have been blasted with PHA and IL-2, are counted, viability determined by Trypan Blue dye exclusion and mixed in equal ratios. Pooled donors are used to minimize the variability observed between individual donors which results from quantitative and qualitative differences in HIV infection and overall response to the PHA and IL-2 of primary lymphocyte populations. The cells are resuspended at 1×10^6 cells/mL in RPMI 1640 without phenol red supplemented with 15% Fetal Bovine Serum (heat inactivated), 2 mM L-glutamine, 100 U/mL penicillin, 100 μg/mL streptomycin, 10 μg/mL gentamycin and IL-2 (20 U/mL, R&D Systems, Minneapolis, Minn.). Fifty microliters of cells are then distributed to the inner 60 wells of a 96 well round bottom Microtiter culture plate in a standard format developed by the Infectious Disease Research department of Southern Research Institute. Each plate contains cell control wells (cells only), virus control wells (cell plus virus), and experimental wells (drug plus cells plus virus).
Using an in-house computer program, IC50 (50% inhibition of virus replication), TC50 (50% reduction in cell viability) and a therapeutic index (TI, […]) were determined. AZT was used as a relevant positive control compound for the individual assays.
This study compares the ability of hyaluronidase to AZT to lower viral replication as measured by reverse transcriptase levels. RT was measured on days 7, 14, and 21. Three different treatment regimens were used in the comparative study (Treatments A, B and C).
Treatment A. Normal mixed PHA blasted human PBMCs (5×10e4/well) were pretreated with drug every 48 hours for 3 doses. On day 6 of pretreatment, cells were infected with clinical isolate ROJO. 48 hours post infection, treatment with drugs continued for an additional 3 treatments. Samples for assay were collected on D7 (day 7), 14, 21, post infection, frozen and later analyzed for reverse transcriptase.
Treatment B. Normal mixed PHA blasted human PBMCs (as above) were plated in 96 wells and allowed to incubate for 48 hours (cells were set at same time as treatment A from same pool). Drug pretreatment started on day 2 and was repeated on day 4. On day 6, cell were infected as in treatment A, with concurrent addition of drug for a total of 3 treatments. […]

## Hyaluronidase
Treatment A, 0.00165 units/mL, Day 7
  RT activity % VC: 131.1%
Treatment A, 0.00165 units/mL, Day 14
  RT activity % VC: 21.6%
Treatment A, 0.00165 units/mL, Day 21
  RT activity % VC: 24.4%
Treatment A, 0.00515 units/mL, Day 7
  RT activity % VC: 49.5%
Treatment A, 0.00515 units/mL, Day 14
  RT activity % VC: 14.9%
Treatment A, 0.00515 units/mL, Day 21
  RT activity % VC: 5.1%
Treatment A, 0.01611 units/mL, Day 7
  RT activity % VC: 1.1%
Treatment A, 0.01611 units/mL, Day 14
  RT activity % VC: 0.1%
Treatment A, 0.01611 units/mL, Day 21
  RT activity % VC: 0.6%
Treatment A, 0.05033 units/mL, Day 7
  RT activity % VC: 1.0%
Treatment A, 0.05033 units/mL, Day 14
  RT activity % VC: 0.4%
Treatment A, 0.05033 units/mL, Day 21
  RT activity % VC: 0.9%
Treatment A, 0.15729 units/mL, Day 7
  RT activity % VC: 0.7%
Treatment A, 0.15729 units/mL, Day 14
  RT activity % VC: 0.2%
Treatment A, 0.15729 units/mL, Day 21
  RT activity % VC: 0.7%
Treatment A, 0.49152 units/mL, Day 7
  RT activity % VC: 1.0%
Treatment A, 0.49152 units/mL, Day 14
  RT activity % VC: 0.3%
Treatment A, 0.49152 units/mL, Day 21
  RT activity % VC: 0.4%
Treatment A, 1.536 units/mL, Day 7
  RT activity % VC: 1.6%
Treatment A, 1.536 units/mL, Day 14
  RT activity % VC: 0.2%
Treatment A, 1.536 units/mL, Day 21
  RT activity % VC: 1.2%
Treatment A, 4.8 units/mL, Day 7
  RT activity % VC: 1.1%
Treatment A, 4.8 units/mL, Day 14
  RT activity % VC: 0.3%
Treatment A, 4.8 units/mL, Day 21
  RT activity % VC: 1.0%
Treatment A, 15 units/mL, Day 7
  RT activity % VC: 1.1%
Treatment A, 15 units/mL, Day 14
  RT activity % VC: 0.7%
Treatment A, 15 units/mL, Day 21
  RT activity % VC: 1.1%
Treatment B, 0.00165 units/mL, Day 7
  RT activity % VC: 47.1%
Treatment B, 0.00165 units/mL, Day 14
  RT activity % VC: 10.5%
Treatment B, 0.00165 units/mL, Day 21
  RT activity % VC: 5.1%
Treatment B, 0.00515 units/mL, Day 7
  RT activity % VC: 6.0%
Treatment B, 0.00515 units/mL, Day 14
  RT activity % VC: 1.0%
Treatment B, 0.00515 units/mL, Day 21
  RT activity % VC: 0.8%
Treatment B, 0.01611 units/mL, Day 7
  RT activity % VC: 3.6%
Treatment B, 0.01611 units/mL, Day 14
  RT activity % VC: 0.6%
Treatment B, 0.01611 units/mL, Day 21
  RT activity % VC: 0.2%
Treatment B, 0.05033 units/mL, Day 7
  RT activity % VC: 3.0%
Treatment B, 0.05033 units/mL, Day 14
  RT activity % VC: 0.4%
Treatment B, 0.05033 units/mL, Day 21
  RT activity % VC: 0.9%
Treatment B, 0.15729 units/mL, Day 7
  RT activity % VC: 2.8%
Treatment B, 0.15729 units/mL, Day 14
  RT activity % VC: 0.4%
Treatment B, 0.15729 units/mL, Day 21
  RT activity % VC: 0.5%
Treatment B, 0.49152 units/mL, Day 7
  RT activity % VC: 4.9%
Treatment B, 0.49152 units/mL, Day 14
  RT activity % VC: 0.4%
Treatment B, 0.49152 units/mL, Day 21
  RT activity % VC: 0.3%
Treatment B, 1.536 units/mL, Day 7
  RT activity % VC: 4.1%
Treatment B, 1.536 units/mL, Day 14
  RT activity % VC: 0.2%
Treatment B, 1.536 units/mL, Day 21
  RT activity % VC: 0.4%
Treatment B, 4.8 units/mL, Day 7
  RT activity % VC: 1.9%
Treatment B, 4.8 units/mL, Day 14
  RT activity % VC: 0.5%
Treatment B, 4.8 units/mL, Day 21
  RT activity % VC: 1.2%
Treatment B, 15 units/mL, Day 7
  RT activity % VC: 3.4%
Treatment B, 15 units/mL, Day 14
  RT activity % VC: 0.5%
Treatment B, 15 units/mL, Day 21
  RT activity % VC: 0.7%
Treatment C, 0.00165 units/mL, Day 7
  RT activity % VC: 104.0%
Treatment C, 0.00165 units/mL, Day 14
  RT activity % VC: 42.4%
Treatment C, 0.00165 units/mL, Day 21
  RT activity % VC: 23.5%
Treatment C, 0.00515 units/mL, Day 7
  RT activity % VC: 100.4%
Treatment C, 0.00515 units/mL, Day 14
  RT activity % VC: 26.0%
Treatment C, 0.00515 units/mL, Day 21
  RT activity % VC: 13.2%
Treatment C, 0.01611 units/mL, Day 7
  RT activity % VC: 3.9%
Treatment C, 0.01611 units/mL, Day 14
  RT activity % VC: 1.8%
Treatment C, 0.01611 units/mL, Day 21
  RT activity % VC: 1.0%
Treatment C, 0.05033 units/mL, Day 7
  RT activity % VC: 3.4%
Treatment C, 0.05033 units/mL, Day 14
  RT activity % VC: 0.4%
Treatment C, 0.05033 units/mL, Day 21
  RT activity % VC: 0.6%
Treatment C, 0.15729 units/mL, Day 7
  RT activity % VC: 3.0%
Treatment C, 0.15729 units/mL, Day 14
  RT activity % VC: 0.2%
Treatment C, 0.15729 units/mL, Day 21
  RT activity % VC: 0.8%
Treatment C, 0.49152 units/mL, Day 7
  RT activity % VC: 4.1%
Treatment C, 0.49152 units/mL, Day 14
  RT activity % VC: 0.2%
Treatment C, 0.49152 units/mL, Day 21
  RT activity % VC: 0.4%
Treatment C, 1.536 units/mL, Day 7
  RT activity % VC: 2.7%
Treatment C, 1.536 units/mL, Day 14
  RT activity % VC: 0.4%
Treatment C, 1.536 units/mL, Day 21
  RT activity % VC: 0.6%
Treatment C, 4.8 units/mL, Day 7
  RT activity % VC: 4.6%
Treatment C, 4.8 units/mL, Day 14
  RT activity % VC: 0.4%
Treatment C, 4.8 units/mL, Day 21
  RT activity % VC: 0.7%
Treatment C, 15 units/mL, Day 7
  RT activity % VC: 3.2%
Treatment C, 15 units/mL, Day 14
  RT activity % VC: 0.6%
Treatment C, 15 units/mL, Day 21
  RT activity % VC: 0.7%
Treatments A, B and C, days 7, 14, and 21
  reduction in viral replication as measured by reverse transcriptase, compared to AZT: greater reduction in viral replication
